Measured values: patent publication US9896441B2 (Lycera Corporation, priority 2014, dated 2018)

Experiments:
RORγ-LBD = biological target: T1, RORγ-LBD (Homo sapiens, UniProt P51449); test: RORγ-Ligand Binding Domain (LBD) TR-FRET Assay; assay type: biochemical; details: for TR-FRET Assay Max Response: maximum response;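 as to TR-FRET Assay Max Response: 665/615 nm signal ratio set to 100 without ursolic acid or test compound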
T1 construct: made in house; host or cells: SF9 cells (baculovirus); used as diluted lysate
T1 sequence (P51449 269-508 limits assumed): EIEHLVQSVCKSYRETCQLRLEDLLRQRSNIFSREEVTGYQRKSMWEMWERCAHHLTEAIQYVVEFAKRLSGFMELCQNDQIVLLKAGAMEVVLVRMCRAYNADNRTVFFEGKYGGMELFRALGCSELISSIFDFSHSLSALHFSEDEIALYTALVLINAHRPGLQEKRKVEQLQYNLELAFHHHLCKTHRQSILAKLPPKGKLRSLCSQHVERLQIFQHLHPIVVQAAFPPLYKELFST
In short: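 TR-FRET read-out using a biotin-tagged SRC1 coactivator LXXLL peptide (200 nM final), with the antagonist ursolic acid present at 2 μM final. Receptor is His-tagged LBD expressed in SF9 cells, ~3 nM final in pH 7.0 Tris/KCl/EDTA/DTT/BSA buffer; compounds in 1% DMSO final.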

Gal4-RORγ-LBD = biological target: T2, Gal4-RORγ-LBD (Homo sapiens, UniProt P51449); test: Gal4-RORγ Luciferase Reporter Assay in HEK-293T Cells; assay type: cell-based; details: HEK-293 cells, luciferase reporter; for Gal4-RORγ Assay Max Response: maximum response
T2 construct: expressed in transfected cells
T2 sequence (P51449 269-508 limits assumed): T1 sequence (P51449 269-508 limits assumed)
In short: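 Max Response was taken as the upper plateau of a 4-parameter logistic fit of luciferase signal, normalized to 100 for wells without ursolic acid or compound. Transiently Gal4-RORγ-LBD/Gal4-luc transfected HEK-293 cells carrying […] ursolic acid were incubated with test compounds (0.2% DMSO) overnight at 37 °C and read with One-Glo.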

| EC50 (RORγ-LBD; RORγ-LBD TR-FRET) [nM] | EC50 (Gal4-RORγ-LBD; with ursolic acid) [nM] | EC50 (RORγ-LBD; RORγ-LBD TR-FRET assay) [nM] | EC50 (Gal4-RORγ-LBD; in presence of ursolic acid) [nM] | SMILES | TR-FRET Assay Max Response (RORγ-LBD; RORγ-LBD TR-FRET assay) | Gal4-RORγ Assay Max Response (Gal4-RORγ-LBD; in presence of ursolic acid) |
| --- | --- | --- | --- | --- | --- | --- |
| < 500 | > 10000 |  |  | CCOc1nn(CC)cc1S(=O)(=O)N1C[C@H](CCC(=O)OC)Oc2ccc(/C=C/c3c(F)cccc3F)cc21 [Example 89AF, (S,E)-methyl 3-(6-(2,6-difluorostyryl)-4-((3-ethoxy-1-ethyl-1H-pyrazol-4-yl)sulfonyl)-3,4-dihydro-2H-benzo[b][1,4]oxazin-2-yl)propanoate] |  |  |
| < 500 | < 500 |  |  | C/C(=C\c1cc2c(cc1Cl)O[C@@H](CCC(=O)O)CN2S(=O)(=O)c1cccc(C(F)(F)F)c1)c1c(F)cccc1Cl [Example 46, (S,E)-3-(7-Chloro-6-(2-(2-chloro-6-fluorophenyl)prop-1-en-1-yl)-4-((3-(trifluoromethyl)phenyl)sulfonyl)-3,4-dihydro-2H-benzo[b][1,4]oxazin-2-yl)propanoic acid] |  |  |
|  |  | < 500 | < 500 | C/C(=C\c1ccc2c(c1)N(S(=O)(=O)c1cccc(C(F)(F)F)c1)C[C@H](CCC(=O)N1CCC1)O2)c1c(F)cccc1Cl [Example 127H, (S,E)-1-(azetidin-1-yl)-3-(6-(2-(2-chloro-6-fluorophenyl)prop-1-en-1-yl)-4-((3-(trifluoromethyl)phenyl)sulfonyl)-3,4-dihydro-2H-benzo[b][1,4]oxazin-2-yl)propan-1-one] | *** (a value in the range of greater than 150 to 200) | ** (a value in the range of greater than 90 to 150) |
| < 500 | < 500 |  |  | COC(=O)CC[C@H]1CN(S(=O)(=O)c2cccc(OC)c2)c2cc(/C=C(\C)c3c(F)cccc3Cl)ccc2O1 [Example 86N, (S,E)-methyl 3-(6-(2-(2-chloro-6-fluorophenyl)prop-1-en-1-yl)-4-((3-methoxyphenyl)sulfonyl)-3,4-dihydro-2H-benzo[b][1,4]oxazin-2-yl)propanoate] |  |  |
|  |  | < 500 | < 500 | COC(=O)CCC1CC(S(=O)(=O)c2cccc(C(F)(F)F)c2)c2cc(OCc3c(F)cccc3Cl)ccc2O1 (stereo not drawn) [Example 186B, methyl 3-(6-((2-chloro-6-fluorobenzyl)oxy)-4-((3-(trifluoromethyl)phenyl)sulfonyl)chroman-2-yl)propanoate] | ** (a value in the range of greater than 90 to 150) | ** (a value in the range of greater than 90 to 150) |
|  |  | < 500 | < 500 | COC(=O)CCC1CC(S(=O)(=O)c2ccc(F)c(OC)c2)c2cc(/C=C(\C)c3c(F)cccc3Cl)ccc2O1 (stereo not drawn) [Example 186F, methyl (E)-3-(6-(2-(2-chloro-6-fluorophenyl)prop-1-en-1-yl)-4-((4-fluoro-3-methoxyphenyl)sulfonyl)chroman-2-yl)propanoate] | *** (a value in the range of greater than 150 to 200) | * (a value in the range of 30 to 90) |
| > 10000 | > 10000 |  |  | CCc1nc(S(=O)(=O)N2C[C@H](CCC(=O)O)Oc3ccc(/C=C/c4c(F)cccc4Cl)cc32)c[nH]1 [Example 89DW, (S,E)-3-(6-(2-chloro-6-fluorostyryl)-4-((2-ethyl-1H-imidazol-4-yl)sulfonyl)-3,4-dihydro-2H-benzo[b][1,4]-oxazin-2-yl)propanoic acid] |  |  |
| < 500 | 500 to 5000 |  |  | COC(=O)CC[C@H]1CN(S(=O)(=O)c2cccc(C(F)(F)F)c2)c2cc(C=C3CCCCC3)ccc2O1 [Example 90, Methyl (S)-3-(6-(cyclohexylidenemethyl)-4-((3-(trifluoromethyl)phenyl)sulfonyl)-3,4-dihydro-2H-benzo[b][1,4]oxazin-2-yl)propanoate] |  |  |
| < 500 | < 500 |  |  | C/C(=C\c1ccc2c(c1)N(S(=O)(=O)c1ccc(F)c(OC(F)F)c1)C[C@H](CCC(=O)O)O2)c1c(F)cccc1Cl [Example 86AS, (S,E)-3-(6-(2-(2-chloro-6-fluorophenyl)prop-1-en-1-yl)-4-((3-(difluoromethoxy)-4-fluorophenyl)sulfonyl)-3,4-dihydro-2H-benzo[b][1,4]oxazin-2-yl)propanoic acid] |  |  |
